Source: paper doi:10.1101/2023.05.15.540887, “Comparative analysis of drug-like EP300/CREBBP acetyltransferase inhibitors” (bioRxiv, 2023)
Read-outs that look alike come from different tables or passages of the source.

What was measured:
HS578T = experiment: NCI-60 growth inhibition (sulforhodamine B); assay type: cell-based; conditions: Homo sapiens
NCI-60 cell line panel = experiment: NCI-60 cell line screen growth inhibition (sulforhodamine B), whole panel; assay type: cell-based, human; conditions: compared among 1-3
Excerpt: In principle the phenotype elicited by any single small molecule can be due to either an on- or off-target effect; however, if multiple chemically distinct small molecules designed to target a single gene all elicit the same phenotype, one’s confidence in their on-target mechanism becomes greater. As such, we sought to apply our knowledge of the comparative potencies of 1-3 to test whether the simplest phenotype caused by EP300/CREBBP inhibitors – cell death – was consistent with their effects on histone acetylation and a putative on-target mechanism. […] Subsequently, the COMPARE algorithm was used to compare the patterns of growth inhibition elicited by 1-3 in the NCI-60 assay against the >150,000 compounds analyzed in the screen to date.[29] […] Finally, the specificity of CPI-1612 (3) was directly assessed using quantitative LC-MS analysis of histone acetylation in treated cells,[33] focusing on four abundant histone acetylation markers whose writers are well-characterized: H3K9Ac (written by KAT2A/B), H3K14Ac (KAT7), H3K18Ac (EP300/CREBBP), and H3K23Ac (KAT6A/B; Fig. 3e).[26] […]

HCT-116 = experiment: NCI-60 growth inhibition (sulforhodamine B); assay type: cell-based, human; conditions: HCT-116 (Colon Cancer), negative log of Molar conc., LCONC -8
HT29 = experiment: NCI-60 growth inhibition (sulforhodamine B); assay type: cell-based, human; conditions: HT29 (Colon Cancer), negative log of Molar conc., LCONC -8
OVCAR-5 = experiment: NCI-60 growth inhibition (sulforhodamine B); assay type: cell-based, human; conditions: OVCAR-5 (Ovarian Cancer), negative log of Molar conc., LCONC -8
MOLT-4 = experiment: NCI-60 growth inhibition (sulforhodamine B); assay type: cell-based, human; conditions: MOLT-4 (Leukemia), negative log of Molar conc., LCONC -8
SK-MEL-28 = experiment: NCI-60 growth inhibition (sulforhodamine B); assay type: cell-based, human; conditions: SK-MEL-28 (Melanoma), negative log of Molar conc., LCONC -8
SK-OV-3 = experiment: NCI-60 growth inhibition (sulforhodamine B); assay type: cell-based; conditions: Homo sapiens, SK-OV-3, Ovarian Cancer, negative log of Molar value, LCONC -8, EXPID 2301NS84
A498 = experiment: NCI-60 growth inhibition (sulforhodamine B); assay type: cell-based; conditions: Homo sapiens, A498, Renal Cancer, negative log of Molar value, LCONC -8, EXPID 2301NS84
786-0 = experiment: NCI-60 growth inhibition (sulforhodamine B); assay type: cell-based; conditions: Homo sapiens, 786-0, Renal Cancer, negative log of Molar value, LCONC -8, EXPID 2301NS84
[1] = Homo sapiens, read-out: GI50 NLOGVALUE (converted)
[2] = Homo sapiens, read-out: IC50 NLOGVALUE (converted)
[3] = Homo sapiens, read-out: LC50 NLOGVALUE
[4] = Homo sapiens, read-out: GI50 NLOGVALUE
[5] = Homo sapiens, read-out: IC50 NLOGVALUE
[6] = read-out: GI50 NLOGVALUE (converted)

Structure (SMILES): C[C@H](CN[C@@H](C(=O)Nc1ccc(-c2cnn(C)c2)cn1)c1ccccc1)c1ccc(C#N)cc1 [CPI-1612]
- GI50 (HS578T; Hs-578T, read-out: GI50 AVGDATA (converted)): 0.0138 µM
- GI50 (HS578T; HS 578T, Breast Cancer, negative log of Molar value, LCONC -8, EXPID 2301NS84, read-out: GI50 NLOGVALUE (converted)): 0.0141 µM
- IC50 (HS578T; HS 578T, Breast Cancer, negative log of Molar value, LCONC -8, EXPID 2301NS84, read-out: IC50 NLOGVALUE): > 100 µM
- CC50 (HS578T; HS 578T, Breast Cancer, negative log of Molar value, LCONC -8, EXPID 2301NS84, read-out: LC50 NLOGVALUE): > 100 µM
- inhibition of cell growth, NCI-60 screen (NCI-60 cell line panel): most potent inhibitor of cell growth
- TGI NLOGVALUE (HCT-116): 4
- GI50 (HCT-116; [1]): 11.2 µM
- IC50 (HCT-116; [2]): 18.6 µM
- CC50 (HCT-116; [3]): > 100 µM
- TGI NLOGVALUE (HT29): 4
- GI50 (HT29; Homo sapiens, HT-29, read-out: GI50 NLOGVALUE (converted)): 0.049 µM
- IC50 (HT29; Homo sapiens, HT-29, read-out: IC50 NLOGVALUE (converted)): 0.437 µM
- GI50 (OVCAR-5; [4]): > 100 µM
- IC50 (OVCAR-5; [5]): > 100 µM
- CC50 (OVCAR-5; [3]): > 100 µM
- TGI NLOGVALUE (OVCAR-5): 4
- GI50 (MOLT-4; [4]): < 0.01 µM
- IC50 (MOLT-4; [2]): 0.0209 µM
- TGI NLOGVALUE (MOLT-4): 4.53
- GI50 (SK-MEL-28; [1]): 14.1 µM
- IC50 (SK-MEL-28; [5]): > 100 µM
- CC50 (SK-MEL-28; [3]): > 100 µM
- TGI NLOGVALUE (SK-MEL-28): 4
- GI50 (SK-OV-3; read-out: GI50 NLOGVALUE): > 100 µM
- IC50 (SK-OV-3; read-out: IC50 NLOGVALUE): > 100 µM
- CC50 (SK-OV-3; read-out: LC50 NLOGVALUE): > 100 µM
- GI50 (A498; [6]): 0.0295 µM
- IC50 (A498; read-out: IC50 NLOGVALUE): > 100 µM
- CC50 (A498; read-out: LC50 NLOGVALUE): > 100 µM
- GI50 (786-0; [6]): 55 µM
- IC50 (786-0; read-out: IC50 NLOGVALUE): > 100 µM
- CC50 (786-0; read-out: LC50 NLOGVALUE): > 100 µM
